In ChEMBL document CHEMBL3784981, “Anti-inflammatory, analgesic and antioxidant activities of novel kyotorphin-nitroxide hybrid molecules” (Bioorg Med Chem Lett, 2016):
pEC50: −log10 of the molar value. The source made the active and inactive calls.

What was measured:
[1] = tested on: Mus musculus; assay: Analgesic activity in ICR mouse assessed as pain threshold at 0.1 umol/kg administered through oral gavage after 90 mins by tail flick method; assay type: functional
[2] = tested on: Mus musculus; assay: Analgesic activity in ICR mouse assessed as pain threshold at 0.1 umol/kg administered through oral gavage after 120 mins by tail flick method; assay type: functional
[3] = tested on: Mus musculus; assay: Antiinflammatory activity in ICR mouse assessed as inhibition of xylene-induced ear edema at 0.1 umol/kg, po administered 30 mins prior to xylene challenge measured after 2hrs; assay type: functional
[4] = Antioxidant activity in rat PC12 cells assessed as H2O2 radical scavenging activity measured as cell survival preincubated with compound for 1 hr measured after 14 hrs by MTT assay; assay type: functional, cell-based; conditions: pc-12
[5] = tested on: Mus musculus; assay: Analgesic activity in ICR mouse assessed as pain threshold at 0.1 umol/kg administered through oral gavage after 150 mins by tail flick method; assay type: functional
[6] = tested on: Mus musculus; assay: Analgesic activity in ICR mouse assessed as pain threshold at 0.1 umol/kg administered through oral gavage after 180 mins by tail flick method; assay type: functional
[7] = Antioxidant activity in H2O2/Fe(II)-stimulated rat PC12 cells assessed as OH radical scavenging activity measured by cell survival preincubated with compound for 1 hr measured after 14 hrs by MTT assay; assay type: functional, cell-based; conditions: pc-12
[8] = Antioxidant activity in sodium nitroprusside-stimulated rat PC12 cells assessed as NO radical scavenging activity measured as cell survival preincubated with compound for 1 hr followed by addition of sodium nitroprusside for 2 measured after 14 hrs by MTT assay; assay type: functional, cell-based; conditions: pc-12
[9] = tested on: Mus musculus; assay: Analgesic activity in ICR mouse assessed as pain threshold at 0.1 umol/kg administered through oral gavage after 30 mins by tail flick method; assay type: functional
[10] = tested on: Mus musculus; assay: Analgesic activity in ICR mouse assessed as pain threshold at 0.1 umol/kg administered through oral gavage after 60 mins by tail flick method; assay type: functional
[11] = tested on: Mus musculus; assay: Analgesic activity in ICR mouse assessed as pain threshold at 1 umol/kg administered through oral gavage after 60 mins by tail flick method; assay type: functional
[12] = tested on: Mus musculus; assay: Analgesic activity in ICR mouse assessed as pain threshold at 1 umol/kg administered through oral gavage after 150 mins by tail flick method; assay type: functional
[13] = tested on: Mus musculus; assay: Analgesic activity in ICR mouse assessed as pain threshold at 1 umol/kg administered through oral gavage after 90 mins by tail flick method; assay type: functional
[14] = tested on: Mus musculus; assay: Analgesic activity in ICR mouse assessed as pain threshold at 1 umol/kg administered through oral gavage after 120 mins by tail flick method; assay type: functional
[15] = tested on: Mus musculus; assay: Analgesic activity in ICR mouse assessed as pain threshold at 1 umol/kg administered through oral gavage after 180 mins by tail flick method; assay type: functional
[16] = tested on: Mus musculus; assay: Analgesic activity in ICR mouse assessed as pain threshold at 1 umol/kg administered through oral gavage after 30 mins by tail flick method; assay type: functional
[17] = tested on: HUVEC; assay: Inhibition of simulated ischemia/reperfusion-induced human HUVEC cells death assessed as increase in tubular mitochondria levels at 30 ug/ml after 2 hrs by Hoechst 33342 dye based fluorescence assay (reference value: 11.3 +/- 2.1 %); assay type: functional; parameters: scale not given: the % may be the effect or the level left
[18] = tested on: Mus musculus; assay: Analgesic activity in ICR mouse assessed as pain threshold at 0.05 umol/kg administered through oral gavage after 120 mins by tail flick method; assay type: functional
[19] = tested on: Mus musculus; assay: Analgesic activity in ICR mouse assessed as pain threshold at 0.05 umol/kg administered through oral gavage after 60 mins by tail flick method; assay type: functional
[20] = tested on: Mus musculus; assay: Analgesic activity in ICR mouse assessed as pain threshold at 0.055 umol/kg administered through oral gavage after 180 mins by tail flick method; assay type: functional
[21] = tested on: Mus musculus; assay: Analgesic activity in ICR mouse assessed as pain threshold at 0.15 umol/kg administered through oral gavage after 120 mins by tail flick method; assay type: functional
[22] = tested on: Mus musculus; assay: Analgesic activity in ICR mouse assessed as pain threshold at 0.055 umol/kg administered through oral gavage after 150 mins by tail flick method; assay type: functional
[23] = tested on: HUVEC; assay: Inhibition of simulated ischemia/reperfusion-induced ROS production in human HUVEC cells at 30 ug/ml after 2 hrs by Hoechst 33342 dye based fluorescence assay; assay type: functional, cell-based
[24] = tested on: Mus musculus; assay: Antiinflammatory activity in ICR mouse assessed as inhibition of xylene-induced ear edema at 0.15 umol/kg, po administered 30 mins prior to xylene challenge measured after 2hrs; assay type: functional
[25] = tested on: Mus musculus; assay: Analgesic activity in ICR mouse assessed as pain threshold at 0.15 umol/kg administered through oral gavage after 150 mins by tail flick method; assay type: functional
[26] = tested on: Mus musculus; assay: Analgesic activity in ICR mouse assessed as pain threshold at 0.05 umol/kg administered through oral gavage after 90 mins by tail flick method; assay type: functional
[27] = tested on: Mus musculus; assay: Analgesic activity in ICR mouse assessed as pain threshold at 0.15 umol/kg administered through oral gavage after 90 mins by tail flick method; assay type: functional
[28] = tested on: HUVEC; assay: Inhibition of simulated ischemia/reperfusion-induced human HUVEC cells death assessed as decrease in fragmented mitochondria at 30 ug/ml after 2 hrs by Hoechst 33342 dye based fluorescence assay; assay type: functional, cell-based
[29] = tested on: Mus musculus; assay: Analgesic activity in ICR mouse assessed as pain threshold at 0.15 umol/kg administered through oral gavage after 60 mins by tail flick method; assay type: functional
[30] = tested on: Mus musculus; assay: Analgesic activity in ICR mouse assessed as pain threshold at 0.15 umol/kg administered through oral gavage after 30 mins by tail flick method; assay type: functional
[31] = tested on: HUVEC; assay: Inhibition of simulated ischemia/reperfusion-induced cytochrome C release in human HUVEC cells at 30 ug/ml after 2 hrs by fluorescence assay (reference value: 75.3 +/- 5.2 %); assay type: functional; parameters: scale not given: the % may be the effect or the level left
[32] = tested on: Mus musculus; assay: Analgesic activity in ICR mouse assessed as pain threshold at 0.15 umol/kg administered through oral gavage after 180 mins by tail flick method; assay type: functional
[33] = tested on: Mus musculus; assay: Antiinflammatory activity in ICR mouse assessed as inhibition of xylene-induced ear edema at 0.05 umol/kg, po administered 30 mins prior to xylene challenge measured after 2hrs; assay type: functional
[34] = tested on: Mus musculus; assay: Analgesic activity in ICR mouse assessed as pain threshold at 0.05 umol/kg administered through oral gavage after 30 mins by tail flick method; assay type: functional

| Compound | Activity [1] | Activity [2] | inhibition (INH) [3] | pEC50 [4] | Activity [5] | Activity [6] | pEC50 [7] | pEC50 [8] | Activity [9] | Activity [10] | further results |
| --- | --- | --- | --- | --- | --- | --- | --- | --- | --- | --- | --- |
| CCc1cc(O)ccc1C[C@H](NC(=O)COc1ccc(C2=[N+]([O-])C(C)(C)C(C)(C)N2[O])cc1)C(=O)N[C@@H](CCCNC(=N)N)C(=O)O | 21.89% | 22.78% | 30.26% | 4.50 | 22.34% | 15.04% | 4.64 | 5.09 | 10.78% | 17.31% | – |
| CC1(C)N([O])C(c2ccc(OCC(=O)N[C@@H](Cc3ccc(O)cc3)C(=O)N[C@@H](CCCCN)C(=O)O)cc2)=[N+]([O-])C1(C)C | 29.31% | 38.33% | 36.94% | 4.50 | 33.73% | 13.58% | 4.64 | 5.09 | 12.56% | 19.35% | – |
| CC1(C)N([O])C(c2ccc(OCC(=O)N[C@@H](CCCNC(=N)N)C(=O)N[C@@H](Cc3ccc(O)cc3)C(=O)O)cc2)=[N+]([O-])C1(C)C | 26.97% | 13.18% | 28.29% | 4.50 | 11.91% | 10.05% | 4.64 | 5.09 | 10.1% | 14.31% | – |
| CC1(C)N([O])C(c2ccc(OCC(=O)O)cc2)=[N+]([O-])C1(C)C | – | – | – | – | – | – | – | – | – | – | Activity [11]: 12.31%; inhibition in vivo at 0.1 µmol/kg ([3]; Mus musculus, ICR, Ear, po): 29.7%; Activity [12]: 21.11%; Activity [13]: 20.97%; Activity [14]: 23.18%; Activity [15]: 13.05%; Activity [16]: 9.1% |
| CC1(C)N([O])C(c2ccc(OCC(=O)N[C@@H](Cc3ccc(O)c(CO)c3)C(=O)N[C@@H](CCCNC(=N)N)C(=O)O)cc2)=[N+]([O-])C1(C)C | 22.37% | 25.78% | 31.23% | 4.50 | 33.56% | 20.14% | 4.64 | 5.09 | 12.12% | 19.13% | – |
| CC1(C)N([O])C(c2ccc(OCC(=O)NCCNC(=O)[C@H](Cc3ccc(O)cc3)NC(=O)[C@@H](N)CCCNC(=N)N)cc2)=[N+]([O-])C1(C)C | 35.74% | 48.17% | 50.68% | 4.49 | 37.11% | 23.15% | 4.47 | 4.71 | 15.28% | 25.75% | Activity [17]: 41.5%; Activity [18]: 15.78%; Activity [19]: 10.35%; Activity [20]: 9.14%; Activity [21]: 50.61%; Activity [22]: 11.91%; Activity [23]: Active; inhibition (INH) [24]: 58.15%; Activity [25]: 39.13%; Activity [26]: 13.57%; Activity [27]: 32.33%; inhibition [28]: Active; Activity [29]: 28.65%; Activity [30]: 17.89%; Activity [31]: 47.8%; Activity [32]: 27.67%; inhibition (INH) [33]: 21.21%; Activity [34]: 7.48% |
| COc1cc(O)ccc1C[C@H](NC(=O)COc1ccc(C2=[N+]([O-])C(C)(C)C(C)(C)N2[O])cc1)C(=O)N[C@@H](CCCNC(=N)N)C(=O)O | 22.47% | 27.14% | 29.27% | 4.50 | 24.12% | 11.24% | 4.64 | 5.09 | 11.37% | 16.33% | – |
